Experimental data as given in patent publication US6737383B1, “Herbicidal oxadiazolidines” (priority 1999, dated 2004).

Assays:
bedstraw = experiment: Test B pre/postemergence bedstraw; assay type: in vivo, Galium aparine
Summary of the method: (§1)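 Herbicidal effect was estimated by eye on a ten-point control scale after plants spent twelve to sixteen days in a greenhouse following soil or foliar treatment. Foliar sprays targeted plants at one to four leaves; all doses were formulated in a non-phytotoxic solvent with surfactant.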

blackgrass = experiment: Test B pre/postemergence blackgrass; assay type: in vivo, Alopecurus myosuroides
Summary of the method: as §1

surinam grass = experiment: Test B pre/postemergence surinam grass; assay type: in vivo, Brachiaria decumbens
Summary of the method: as §1

cocklebur = experiment: Test B pre/postemergence cocklebur; assay type: in vivo, Xanthium strumarium
Summary of the method: as §1

corn = experiment: Test B pre/postemergence corn; assay type: in vivo, Zea mays
Summary of the method: as §1

crabgrass = experiment: Test B pre/postemergence crabgrass; assay type: in vivo, Digitaria sanguinalis
Summary of the method: as §1

giant foxtail = experiment: Test B pre/postemergence giant foxtail; assay type: in vivo, Setaria faberii
Summary of the method: as §1

morningglory = experiment: Test B pre/postemergence morningglory; assay type: in vivo, Ipomoea hederacea
Summary of the method: as §1

pigweed = experiment: Test B pre/postemergence pigweed; assay type: in vivo, Amaranthus retroflexus
Summary of the method: as §1

soybean = experiment: Test B pre/postemergence soybean; assay type: in vivo, Glycine max
Summary of the method: as §1

velvetleaf = experiment: Test B pre/postemergence velvetleaf; assay type: in vivo, Abutilon theophrasti; details: for Plant response rating, Velvetleaf: Rate 250 g/ha
Summary of the method: as §1

wheat = experiment: Test B pre/postemergence wheat; assay type: in vivo, Triticum aestivum; details: for Plant response rating, Wheat: Rate 250 g/ha
Summary of the method: as §1

wild oat = experiment: Test B pre/postemergence wild oat; assay type: in vivo, Avena fatua; details: for Plant response rating, Wild oats: Rate 250 g/ha
Summary of the method: as §1

rice = experiment: Test B flood test rice; assay type: in vivo, Oryza sativa
Summary of the method: (§2)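 Read-out is a visual response score from 0 (no effect) to 10 (complete control), assigned by comparison with untreated controls. Treatment was applied at the 2-leaf stage, and plants stayed in the greenhouse for twelve to sixteen days before scoring.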

smallflower flatsedge = experiment: Test B flood test smallflower flatsedge; assay type: in vivo, Cyperus difformis
Summary of the method: as §2

bamyardgrass = experiment: Test B flood test barnyardgrass; assay type: in vivo, Echinochloa crus-galli
Summary of the method: as §2

[1] = Postemergence, Rate 62 g/ha, scale 0 to 10, 0 is no effect, 10 is complete control
[2] = Postemergence, Rate 250 g/ha, scale 0 to 10, 0 no effect, 10 complete control
[3] = Preemergence, Rate 62 g/ha, scale 0 to 10 (0 no effect, 10 complete control)
[4] = Preemergence, Rate 125 g/ha, scale 0 to 10 (0 no effect, 10 complete control)
[5] = Preemergence, Rate 250 g/ha, scale of 0 to 10 where 0 is no effect and 10 is complete control
[6] = Preemergence, Rate 500 g/ha, scale 0 to 10 (0 no effect, 10 complete control)
[7] = Rate 125 g/ha, Postemergence, scale 0 to 10, 0 no effect, 10 complete control
[8] = Postemergence, Rate 125 g/ha, scale of 0 to 10 where 0 is no effect and 10 is complete control
[9] = Rate 62 g/ha, Postemergence, scale of 0 to 10 where 0 is no effect and 10 is complete control
[10] = Rate 500 g/ha, Postemergence, scale 0 to 10, 0 no effect, 10 complete control
[11] = Rate 250 g/ha, Postemergence, scale 0 to 10, 0 is no effect, 10 is complete control
[12] = Preemergence, Rate 125 g/ha, 0 is no effect, 10 is complete control
[13] = Preemergence, scale of 0 to 10 where 0 is no effect and 10 is complete control
[14] = Postemergence, scale 0 to 10, 0 is no effect, 10 is complete control
[15] = Rate 250 g/ha, headed Pre-emergence (flood test species), scale 0 to 10 (0 no effect, 10 complete control)
[16] = Rate 500 g/ha, headed Pre-emergence (flood test species), scale 0 to 10 (0 no effect, 10 complete control)
[17] = Rate 1000 g/ha, Pre-emergence (as headed), scale 0 to 10
[18] = Rate 2000 g/ha, Pre-emergence (as headed), scale 0 to 10

CC(C)N(C(=O)n1oc(=O)n(C(C)(C)C)c1=O)c1ccc(Cl)cc1 [Compound 118]
Bedstraw plant response rating (bedstraw; [1]): 0 | Bedstraw plant response rating (bedstraw; [2]): 0 | Bedstraw plant response rating (bedstraw; [3]): 0 | Plant response rating, Bedstraw (bedstraw; [4]): 0 | Plant response rating, Bedstraw (bedstraw; [5]): 0 | Bedstraw plant response rating (bedstraw; [6]): 0 | Bedstraw plant response rating (bedstraw; [7]): 0 | Blackgrass plant response rating (blackgrass; [8]): 4 | Blackgrass plant response rating (blackgrass; [2]): 7 | Blackgrass plant response rating (blackgrass; [3]): 0 | Plant response rating, Blackgrass (blackgrass; [4]): 2 | Plant response rating, Blackgrass (blackgrass; [5]): 3 | Blackgrass plant response rating (blackgrass; [6]): 7 | Blackgrass plant response rating (blackgrass; [9]): 0 | Blackgrass plant response rating (blackgrass; [10]): 9 | B. signalgrass plant response rating (surinam grass; [1]): 0 | B. signalgrass plant response rating (surinam grass; [2]): 2 | B. signalgrass plant response rating (surinam grass; [3]): 0 | Plant response rating, B. signalgrass (surinam grass; [4]): 2 | Plant response rating, B. signalgrass (surinam grass; [5]): 3 | B. signalgrass plant response rating (surinam grass; [6]): 10 | B. signalgrass plant response rating (surinam grass; [7]): 0 | B. signalgrass plant response rating (surinam grass; Rate 500 g/ha, Postemergence, scale of 0 to 10 where 0 is no effect and 10 is complete control): 9 | Cocklebur plant response rating (cocklebur; [8]): 0 | Cocklebur plant response rating (cocklebur; [2]): 0 | Cocklebur plant response rating (cocklebur; [3]): 0 | Plant response rating, Cocklebur (cocklebur; [4]): 0 | Plant response rating, Cocklebur (cocklebur; [5]): 0 | Cocklebur plant response rating (cocklebur; [6]): 0 | Cocklebur plant response rating (cocklebur; [9]): 0 | Cocklebur plant response rating (cocklebur; [10]): 0 | Corn plant response rating (corn; [8]): 0 | Corn plant response rating (corn; [2]): 0 | Corn plant response rating (corn; [3]): 0 | Plant response rating, Corn (corn; [4]): 0 | Plant response rating, Corn (corn; [5]): 0 | Corn plant response rating (corn; [6]): 0 | Corn plant response rating (corn; [9]): 0 | Corn plant response rating (corn; [10]): 3 | Crabgrass plant response rating (crabgrass; [8]): 7 | Crabgrass plant response rating (crabgrass; [2]): 7 | Crabgrass plant response rating (crabgrass; [3]): 7 | Plant response rating, Crabgrass (crabgrass; [4]): 9 | Plant response rating, Crabgrass (crabgrass; [5]): 10 | Crabgrass plant response rating (crabgrass; [6]): 10 | Crabgrass plant response rating (crabgrass; [9]): 1 | Crabgrass plant response rating (crabgrass; [10]): 9 | Giant foxtail plant response rating (giant foxtail; [8]): 8 | Giant foxtail plant response rating (giant foxtail; [2]): 9 | Giant foxtail plant response rating (giant foxtail; [3]): 9 | Plant response rating, Giant foxtail (giant foxtail; [4]): 10 | Plant response rating, Giant foxtail (giant foxtail; [5]): 10 | Giant foxtail plant response rating (giant foxtail; [6]): 10 | Giant foxtail plant response rating (giant foxtail; [9]): 1 | Giant foxtail plant response rating (giant foxtail; [10]): 9 | Morningglory plant response rating (morningglory; [8]): 4 | Morningglory plant response rating (morningglory; [2]): 5 | Morningglory plant response rating (morningglory; [3]): 0 | Plant response rating, Morningglory (morningglory; [4]): 0 | Plant response rating, Morningglory (morningglory; [5]): 0 | Morningglory plant response rating (morningglory; [6]): 0 | Morningglory plant response rating (morningglory; [9]): 1 | Morningglory plant response rating (morningglory; [10]): 7 | Redroot pigweed plant response rating (pigweed; [8]): 0 | Redroot pigweed plant response rating (pigweed; [3]): 0 | Plant response rating, Redroot pigweed (pigweed; [4]): 0 | Plant response rating, Redroot pigweed (pigweed; [5]): 2 | Redroot pigweed plant response rating (pigweed; [6]): 10 | Redroot pigweed plant response rating (pigweed; [9]): 0 | Plant response rating, Redroot pigweed (pigweed; [11]): 0 | Redroot pigweed plant response rating (pigweed; [10]): 0 | Soybean plant response rating (soybean; [8]): 1 | Soybean plant response rating (soybean; [3]): 0 | Plant response rating, Soybean (soybean; [4]): 0 | Plant response rating, Soybean (soybean; [5]): 0 | Soybean plant response rating (soybean; [6]): 0 | Soybean plant response rating (soybean; [9]): 1 | Plant response rating, Soybean (soybean; [11]): 2 | Soybean plant response rating (soybean; [10]): 2 | Velvetleaf plant response rating (velvetleaf; [8]): 0 | Velvetleaf plant response rating (velvetleaf; [3]): 0 | Velvetleaf plant response rating (0 to 10 scale) (velvetleaf; [12]): 0 | Plant response rating, Velvetleaf (velvetleaf; [13]): 0 | Velvetleaf plant response rating (velvetleaf; [6]): 4 | Velvetleaf plant response rating (velvetleaf; [9]): 0 | Plant response rating, Velvetleaf (velvetleaf; [14]): 0 | Velvetleaf plant response rating (velvetleaf; [10]): 0 | Wheat plant response rating (wheat; [8]): 0 | Wheat plant response rating (wheat; [3]): 0 | Wheat plant response rating (0 to 10 scale) (wheat; [12]): 0 | Plant response rating, Wheat (wheat; [13]): 0 | Wheat plant response rating (wheat; [6]): 0 | Wheat plant response rating (wheat; [9]): 0 | Plant response rating, Wheat (wheat; [14]): 0 | Wheat plant response rating (wheat; [10]): 2 | Wild oats plant response rating (wild oat; [8]): 0 | Wild oats plant response rating (wild oat; [3]): 0 | Wild oats plant response rating (0 to 10 scale) (wild oat; [12]): 1 | Plant response rating, Wild oats (wild oat; [13]): 6 | Wild oats plant response rating (wild oat; [6]): 6 | Wild oats plant response rating (wild oat; [9]): 0 | Plant response rating, Wild oats (wild oat; [14]): 0 | Wild oats plant response rating (wild oat; [10]): 2 | Rice plant response rating (rice; [15]): 0 | Plant response rating, Rice (rice; [16]): 0 | Rice plant response rating (rice; [17]): 0 | Rice plant response rating (rice; [18]): 0 | S. Flatsedge plant response rating (smallflower flatsedge; Pre-emergence, Rate 1000 g/ha, scale 0 to 10 (0 no effect, 10 complete control)): 0 | S. Flatsedge plant response rating (smallflower flatsedge; [15]): 0 | Plant response rating, S. Flatsedge (smallflower flatsedge; [16]): 0 | S. Flatsedge plant response rating (smallflower flatsedge; [18]): 0 | Barnyardgrass plant response rating (bamyardgrass; [15]): 0 | Plant response rating, Barnyardgrass (bamyardgrass; [16]): 1 | Barnyardgrass plant response rating (bamyardgrass; [17]): 3 | Barnyardgrass plant response rating (bamyardgrass; Rate 2000 g/ha, Pre-emergence (as headed), scale 0 to 10, 0 no effect, 10 complete control): 6
